Patent US12059433B2, “Treatment for autistic spectrum disorder (ASD) and relevant symptoms” (ACADEMIA SINICA, priority 2019, dated 2024)

Assays:
CTTNBP2 M120I mice = test: Reciprocal social interaction (RSI) test, M120I mutant mice; format: in vivo, mouse; conditions: for social interaction in RSI, single supplement: CTTNBP2 M120I mice, individually provided: zinc (20 ppm), BCAA (0.225%), serine (0.5%)
Method: Before RSI, mice were individually isolated for at least a week. For the experiment, an unfamiliar adult mouse was put into the home cage of the test mouse for 10 min. The lid of the cage was removed during the entire session. Mouse behaviors were recorded by videotaping from above. The total time a test mouse spent interacting with and gently sniffing the unfamiliar mouse was manually recorded. Aggressive behavior was not assessed.
A supplement or supplement mixture was prepared by mixing a zinc ion source, a serine component and/or BCAAs at various concentrations in drinking water for behavior analyses.
We tested three different ASD mouse models, i.e. Nf1+/−, Tbr1+/−, and Cttnbp2 M120I mice. Before taking supplement, mice were subjected to the first reciprocal social interaction test. After taking supplement for 7 days, mice were analyzed again using reciprocal social interaction to evaluate the effect of nutritional supplementation.

[1] = test system: synaptic proteins and glutamate receptors in synaptosomal fractions of Cttnbp2−/− mouse brains; conditions: 40 ppm zinc in drinking water for 7 days vs regular water
Method: One hemisphere of the forebrains from adult mice (˜8-weeks-old) were isolated and homogenized using a tissue dounce homogenizer with a loose pestle in 1 ml sucrose buffer [50 mM Tris-Cl pH 7.4, 320 mM sucrose, 2 mM DTT, 2 μg/ml leupeptin, 2 μg/ml pepstatin-A, 2 μg/ml aproteinin, 2 mM PMSF, 2 μg/ml MG132]. An aliquot of 50 μl of total homogenate was kept. The remainder of the total homogenate was centrifuged twice at 800×g for 10 min at 4° C. The supernatant was centrifuged at 9200×g for 15 min to collect the pellet as a crude synaptosomal fraction. The protein concentrations of total homogenates and synaptosomal fractions were determined by Bradford assay (Bio-Rad Protein Assay Dye Reagent Concentrate, Cat #5000006). Synaptosomal protein samples were then analyzed with LC-MS-MS and immunoblotting.
To validate CTTNBP2 expression in knockout mice, adult mouse brain (˜8 weeks old) samples were homogenized in RIPA buffer. After 30 min, debris was removed by centrifugation (13000 rpm in a microcentrifuge for 20 min). The supernatants were collected and protein amounts were determined by Bio-Rad Protein Assay Dye Reagent Concentrate. Protein samples were denatured by 2× sample buffer and boiled for 10 min. Five μg of protein samples were separated by SDS-PAGE and then transferred to PVDF membrane. Membranes were blocked using blocking buffer [5% skim milk and 0.1% Tween-20 in PBS] for 30 min and hybridized with primary antibodies. In principle, primary antibody was added into blocking buffer and hybridized with the membrane overnight at 4° C. or for 3 hr at room temperature. Horseradish peroxidase-conjugated goat anti-mouse, rabbit, or guinea pig secondary antibodies were used to detect primary antibody and were visualized using a Western Lightening Plus ECL system (PerkinElmer).
(§1) The concentration of zinc in the mouse chow (5K54, LabDiet) provided in our animal facility is 84 ppm. To increase the zinc intake to ˜150 ppm, mice were provided with ZnSO4 (Z0251, Sigma-Aldrich) in drinking water at a concentration of 40 ppm, which is based on daily consumption of ˜5 ml water and 2.5 g chow by each mouse. To study the expression of synaptic proteins after zinc supplementation, adult mice (˜8 weeks old) were fed with zinc-supplemented water or normal drinking water as control for 7 days and then sacrificed for synaptosomal analysis as described above. To validate the zinc levels in brain, zinc quantification kit (ab102597, Abcam) was used according to manufacturer's instruction. The zinc concentrations were normalized by protein amounts. To study the effect of zinc supplementation on social behavior of Cttnbp2 deletion and mutant mice, three consecutive trials of reciprocal social interaction were performed at intervals of 7 days (FIG. 8C). The first trial was performed before zinc supplementation. After the first trial, mice were provided with zinc-supplemented water (40 ppm) for 7 days and then subjected to the second trial. After the second trial, zinc-supplemented water was replaced with normal drinking water for 7 days and mice then underwent the third trial. Reciprocal social interaction trials were performed as described above.

[2] = zinc supplementation in drinking water, experimental period
Cttnbp2−/− mice = test: Reciprocal social interaction (RSI) test, Cttnbp2−/− mice; format: in vivo, mouse
Method: (§2) Mouse behaviors were recorded by videotaping from above. […] Aggressive behavior was not assessed. […] The zinc concentrations were normalized by protein amounts. […] The first trial was performed before zinc supplementation. […] Reciprocal social interaction trials were performed as described above. To analyze the effect of D-cycloserine (DCS, ab120121, Abcam) on social behaviors of Cttnbp2 mutant mice, adult mice (˜8 weeks old) were first habituated to handling by subjecting them to an open field with or without inanimate objects. Mice were then isolated until ˜10 weeks old for reciprocal social interaction trials. During isolation, mice were habituated to intraperitoneal injection, which effectively reduces their anxiety response to intraperitoneal injection during the experimental period. On day 1 of the experiment, saline control (0.9% of NaCl) was intraperitoneally injected into the test animal 30 min before a reciprocal social interaction trial, conducted as described above. On day 2 of the experiment, D-cycloserine solution (2 mg/kg in 0.9% of NaCl) was intraperitoneally injected into mice 30 min before a reciprocal social interaction trial.

wild-type mice = conditions: 40 ppm zinc in drinking water for 7 days
Method: as §1

[3] = Cttnbp2−/− mice; 40 ppm zinc in drinking water for 7 days vs regular water
Method: as §1

CTTNBP2 R533* mice = test: Reciprocal social interaction (RSI) test, R533* mutant mice; format: in vivo, mouse
Method: as §2

Tbr1+/− mice = conditions: cited from earlier work; for behavioral defects and autism-like behaviors: refs [49, 50, 51]
Shank2−/− mice = conditions: previous studies [35-38]; cited from earlier work

For O.O.O.O.O.O.O.O=S(=O)([O-])[O-].[Zn+2] [zinc, Zinc sulfate heptahydrate], the “social interaction in RSI, single supplement” value (CTTNBP2 M120I mice) was “did not improve”, the “GRIN1 expression level in synaptosomal fractions” value [1] was “increased” and the “GRIN2B expression level in synaptosomal fractions” value [1] was “increased”. The “MOB4 expression level in synaptosomal fractions” value [1] was “increased”, the “RAC3 expression level in synaptosomal fractions” value [1] was “increased” and the “SHANK2 expression level in synaptosomal fractions” value [1] was “increased”. For the same molecule, the “SHANK3 expression level in synaptosomal fractions” value [1] was “increased”, the “STRN expression level in synaptosomal fractions” value [1] was “increased” and the “cortactin expression level in synaptosomal fractions” value [1] was “increased”. The “levels of GRIA1 in synaptosomal fractions” value [1] was “not noticeably altered”, the “levels of GRIA2 in synaptosomal fractions” value [1] was “not noticeably altered” and the “synaptic levels of DPYSL3” value [1] was “reduced”. For the same molecule, the body weight [2] was “nor did it alter”, the “volumes of water drunk daily” value [2] was “nor did it alter” and the “social interaction, third RSI test” value (Cttnbp2−/− mice; 7 days after discontinuing zinc supplementation, vs second RSI test) was “reduced”. For the same molecule, the “time interacting with the unfamiliar mouse, second RSI test” value (Cttnbp2−/− mice; after 40 ppm zinc in drinking water for 7 days, vs first RSI test) was “spent significantly longer interacting with the unfamiliar mouse”, the “social behaviors in RSI tests” value (wild-type mice) was “did not noticeably influence” and the “concentration of zinc in brains” value [3] was “increase”. For the same molecule, the “social interaction, third RSI test” value (CTTNBP2 R533* mice; R533* mice, 7 days after discontinuing zinc supplementation, vs second RSI test) was “tended to be lowered, but it was not statistically different from those of the second RSI” and the “time interacting with the unfamiliar mouse, second RSI test” value (CTTNBP2 R533* mice; R533* mice, after 40 ppm zinc in drinking water for 7 days, vs first RSI test) was “spent significantly longer interacting with the unfamiliar mouse”.

For Oc1c(I)cc(Cl)c2cccnc12 [clioquinol], the “behavioral defects and autism-like behaviors” value (Tbr1+/− mice) is listed as “ameliorate the behavioral defects and improve autism-like behaviors”.

For N[C@@H](CO)C(=O)O [serine, L-Serine], the “social interaction in RSI, single supplement” value (CTTNBP2 M120I mice) was “did not improve”.

For N[C@@H]1CONC1=O [D-cycloserine, (4R)-4-amino-1,2-oxazolidin-3-one, reference compound], the social behaviors (Tbr1+/− mice; previous studies [35-38]) is listed as “improves”, the “behavioral defects and autism-like behaviors” value (Tbr1+/− mice) is listed as “ameliorate the behavioral defects and improve autism-like behaviors” and the “social interaction behaviors in RSI test” value (CTTNBP2 M120I mice; M120I mutant mice, 2 mg/kg intraperitoneally 30 min before RSI, vs saline) is listed as “improved”. For the same molecule, the “social interaction behavior in RSI test” value (Cttnbp2−/− mice; 2 mg/kg intraperitoneally 30 min before RSI, vs saline control) was “increased social interaction behavior”, the “social interaction behaviors in RSI test” value (CTTNBP2 R533* mice; R533* mutant mice, 2 mg/kg intraperitoneally 30 min before RSI, vs saline) was “improved” and the social behaviors (Shank2−/− mice) was “improves”.
